In this assay the test system is rice blast. The assay is classed as cell-based. The following applies: 1,000 μl of 2,000 ppm test solution on oatmeal culture medium; 8 mm rice blast disc; 25° C. for 7 days; elongation length of hyphae vs without treatment.

The text below walks through data of patent publication US12630543B2 (priority 2019, dated 2026).

Turning to `COc1nn(-c2ccccn2)c(F)c1C(F)(F)F` [Example 2, 5-fluoro-3-methoxy-1-(2-pyridyl)-4-trifluoromethylpyrazole], the Preventive value was found to be 80.
